Test results from ChEMBL document CHEMBL1833846 (Bioorg Med Chem Lett, 2011).

What was measured:
Histone deacetylase 1 [1] = molecular target: T1, Histone deacetylase 1 (Homo sapiens, UniProt Q13547); assay: Inhibition of HDAC1 assessed as residual activity at 32 uM after 30 mins by Fluor de Lys fluorescence assay
[2] = molecular target: T2, Protein deacetylase HDAC6 (Homo sapiens) (UniProt Q9UBN7); assay: Inhibition of HDAC6 assessed as residual activity at 32 uM after 30 mins by Fluor de Lys fluorescence assay
T2 sequence (whole entry): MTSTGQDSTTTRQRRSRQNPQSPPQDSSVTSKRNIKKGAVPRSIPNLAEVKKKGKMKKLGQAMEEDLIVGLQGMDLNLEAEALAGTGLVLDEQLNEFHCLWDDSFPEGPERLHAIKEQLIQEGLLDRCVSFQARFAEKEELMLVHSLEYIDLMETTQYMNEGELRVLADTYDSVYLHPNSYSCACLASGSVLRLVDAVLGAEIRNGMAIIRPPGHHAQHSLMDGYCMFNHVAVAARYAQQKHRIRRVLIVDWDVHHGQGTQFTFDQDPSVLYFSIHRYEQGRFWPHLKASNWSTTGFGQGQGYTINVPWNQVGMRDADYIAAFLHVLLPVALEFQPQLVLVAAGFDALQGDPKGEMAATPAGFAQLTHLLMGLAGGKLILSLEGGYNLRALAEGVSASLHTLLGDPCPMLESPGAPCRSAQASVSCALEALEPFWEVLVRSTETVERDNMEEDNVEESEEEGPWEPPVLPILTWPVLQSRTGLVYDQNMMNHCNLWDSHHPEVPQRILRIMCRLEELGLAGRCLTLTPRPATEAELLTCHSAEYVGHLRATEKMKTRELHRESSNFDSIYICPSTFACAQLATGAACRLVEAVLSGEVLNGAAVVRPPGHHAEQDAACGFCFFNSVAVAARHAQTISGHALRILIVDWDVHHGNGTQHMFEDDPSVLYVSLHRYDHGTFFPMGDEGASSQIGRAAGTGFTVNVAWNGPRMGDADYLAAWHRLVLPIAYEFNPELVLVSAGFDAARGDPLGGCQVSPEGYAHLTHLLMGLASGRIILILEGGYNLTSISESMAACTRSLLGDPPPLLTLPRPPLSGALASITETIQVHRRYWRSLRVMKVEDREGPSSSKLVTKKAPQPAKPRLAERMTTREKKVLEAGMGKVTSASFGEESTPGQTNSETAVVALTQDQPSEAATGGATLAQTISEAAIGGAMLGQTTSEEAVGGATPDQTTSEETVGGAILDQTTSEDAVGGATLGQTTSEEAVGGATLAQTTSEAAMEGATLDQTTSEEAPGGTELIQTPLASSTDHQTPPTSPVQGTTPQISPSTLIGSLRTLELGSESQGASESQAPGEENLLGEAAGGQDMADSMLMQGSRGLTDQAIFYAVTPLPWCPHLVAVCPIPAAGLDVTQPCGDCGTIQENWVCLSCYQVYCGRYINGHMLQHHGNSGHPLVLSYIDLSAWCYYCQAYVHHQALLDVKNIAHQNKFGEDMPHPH

Histone deacetylase = assay: Inhibition of human HDAC in HeLa cells after 30 mins by Fluor de Lys fluorescence assay; assay type: cell-based
Histone deacetylase 3 [3] = molecular target: T3, Histone deacetylase 3 (Homo sapiens, UniProt O15379); assay: Inhibition of HDAC3 assessed as residual activity at 32 uM after 30 mins by Fluor de Lys fluorescence assay
[4] = Selectivity ratio of IC50 for HDAC1 to IC50 for HDAC6
Histone deacetylase 3 [5] = molecular target: T3, Histone deacetylase 3; details: 375 nM
[6] = molecular target: T2, Protein deacetylase HDAC6 (Homo sapiens); details: 375 nM
Histone deacetylase 1 [7] = molecular target: T1, Histone deacetylase 1; details: 375 nM
[8] = Selectivity ratio of IC50 for HDAC3 to IC50 for HDAC1
Histone deacetylase 3 [9] = molecular target: T3, Histone deacetylase 3; assay: Inhibition of HDAC3 after 30 mins by Fluor de Lys fluorescence assay
[10] = molecular target: T4, Protein deacetylase HDAC6 (Homo sapiens, UniProt Q9UBN7); assay: Inhibition of HDAC6 after 30 mins by Fluor de Lys fluorescence assay
T4 sequence (Q9UBN7 whole entry): T2 sequence (whole entry)

[11] = Selectivity ratio of IC50 for HDAC3 to IC50 for HDAC6
Histone deacetylase 1 [12] = molecular target: T1, Histone deacetylase 1; assay: Inhibition of HDAC1 after 30 mins by Fluor de Lys fluorescence assay

T1 sequence (Q13547 whole entry): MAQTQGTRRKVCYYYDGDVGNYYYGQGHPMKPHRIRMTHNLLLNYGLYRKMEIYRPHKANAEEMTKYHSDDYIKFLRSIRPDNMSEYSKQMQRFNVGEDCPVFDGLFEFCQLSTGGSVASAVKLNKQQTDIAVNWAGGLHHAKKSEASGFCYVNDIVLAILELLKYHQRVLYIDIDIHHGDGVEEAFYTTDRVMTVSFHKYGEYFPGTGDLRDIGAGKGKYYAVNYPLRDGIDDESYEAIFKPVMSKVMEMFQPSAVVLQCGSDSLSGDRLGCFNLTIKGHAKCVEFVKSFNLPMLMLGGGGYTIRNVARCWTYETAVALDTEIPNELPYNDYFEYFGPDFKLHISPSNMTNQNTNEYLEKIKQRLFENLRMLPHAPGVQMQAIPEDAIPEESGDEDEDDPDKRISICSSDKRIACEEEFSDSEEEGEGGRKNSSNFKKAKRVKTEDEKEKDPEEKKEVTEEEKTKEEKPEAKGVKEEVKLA
T3 sequence (O15379 whole entry): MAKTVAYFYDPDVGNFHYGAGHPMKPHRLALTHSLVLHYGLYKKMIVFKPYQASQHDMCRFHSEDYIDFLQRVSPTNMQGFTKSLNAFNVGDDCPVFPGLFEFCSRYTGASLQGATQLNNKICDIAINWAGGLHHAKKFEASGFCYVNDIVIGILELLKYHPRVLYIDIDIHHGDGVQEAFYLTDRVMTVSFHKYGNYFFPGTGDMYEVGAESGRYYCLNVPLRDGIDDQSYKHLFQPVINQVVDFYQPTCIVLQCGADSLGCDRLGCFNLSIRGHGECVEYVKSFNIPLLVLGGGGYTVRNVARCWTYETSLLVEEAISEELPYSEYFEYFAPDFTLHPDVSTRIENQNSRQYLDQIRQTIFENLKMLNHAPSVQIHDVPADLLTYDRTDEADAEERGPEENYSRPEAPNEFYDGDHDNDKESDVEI

Activity (Histone deacetylase 1 [1]) [%]	Activity [2] [%]	IC50 (Histone deacetylase) [µM]	Activity (Histone deacetylase 3 [3]) [%]	Ratio IC50 [4]	Compound	also measured
				7	O=C(CCCCCCC(=O)Nc1ccc([C@H]2O[C@@H](CSc3nc(-c4ccccc4)c(-c4ccccc4)o3)C[C@@H](c3ccc(CO)cc3)O2)cc1)NO	
		0.35			CC(CCCCC(=O)Nc1ccccc1)CC(=O)NO (configuration not stated)	Activity (Histone deacetylase 3 [5]): 59%; Activity [6]: 74%; Activity (Histone deacetylase 1 [7]): 46%
39	18	32	83	3	CCC(CCCCC(=O)Nc1ccccc1)CC(=O)NO (configuration not stated)	Ratio IC50 [8]: 4; IC50 (Histone deacetylase 3 [9]): 97 µM; IC50 [10]: 8 µM; Ratio IC50 [11]: 12; IC50 (Histone deacetylase 1 [12]): 22 µM

The remaining lines, values behind:

Compound	Activity (Histone deacetylase 1 [1]) [%]	Activity [2] [%]	IC50 (Histone deacetylase) [µM]	Activity (Histone deacetylase 3 [3]) [%]	Ratio IC50 [4]	also measured
O=C(CC(CCCCC(=O)Nc1ccccc1)c1ccccc1)NO (configuration not stated)	45	25	73	50		
C=CC(CCCCC(=O)Nc1ccccc1)CC(=O)NO (configuration not stated)	24	27	15	47		
CCCCC(CCCCC(=O)Nc1ccccc1)CC(=O)NO (configuration not stated)	33	24	184	51		
